Assay: excess molar enthalpy (molar enthalpy of mixing); xn = mol fraction of the nth substance listed
Conditions: Liquid

CO [methanol] + O
Conditions	excess molar enthalpy [kcal/mol]
425.1 K, 10000 kPa, x1 = 0.8	0.0323
468.38 K, 10000 kPa, x1 = 0.4	0.119
468.72 K, 8500 kPa, x1 = 0.4	0.115
469.1 K, 10000 kPa, x1 = 0.6	0.114
469.29 K, 5000 kPa, x1 = 0.4	0.104
469.31 K, 8500 kPa, x1 = 0.6	0.11
469.39 K, 5000 kPa, x1 = 0.3	0.0932
469.49 K, 5000 kPa, x1 = 0.5	0.104
469.5 K, 10000 kPa, x1 = 0.2	0.0801
469.66 K, 8500 kPa, x1 = 0.2	0.0793
469.81 K, 5000 kPa, x1 = 0.2	0.0717
469.91 K, 5000 kPa, x1 = 0.6	0.096
470.63 K, 5000 kPa, x1 = 0.7	0.0803
470.65 K, 10000 kPa, x1 = 0.4	0.122
470.78 K, 10000 kPa, x1 = 0.6	0.115
470.8 K, 10000 kPa, x1 = 0.8	0.0707
471.01 K, 8500 kPa, x1 = 0.4	0.118
471.06 K, 8500 kPa, x1 = 0.8	0.0689
471.22 K, 5000 kPa, x1 = 0.1	0.0392
471.24 K, 5000 kPa, x1 = 0.4	0.104
471.34 K, 5000 kPa, x1 = 0.8	0.057
471.36 K, 5000 kPa, x1 = 0.5	0.104
471.45 K, 5000 kPa, x1 = 0.3	0.0941
471.49 K, 8500 kPa, x1 = 0.6	0.113
471.54 K, 8500 kPa, x1 = 0.2	0.0812
471.91 K, 5000 kPa, x1 = 0.6	0.0953
472.04 K, 5000 kPa, x1 = 0.7	0.0796
472.16 K, 10000 kPa, x1 = 0.8	0.0715
472.23 K, 5000 kPa, x1 = 0.9	0.0296
472.28 K, 5000 kPa, x1 = 0.8	0.0561
472.49 K, 10000 kPa, x1 = 0.2	0.0832
473.11 K, 5000 kPa, x1 = 0.2	0.0722
473.15 K, 5000 kPa, x1 = 0.1	0.0395
473.15 K, 5000 kPa, x1 = 0.2	0.0719
473.15 K, 5000 kPa, x1 = 0.3	0.0932
473.15 K, 5000 kPa, x1 = 0.4	0.103
473.15 K, 5000 kPa, x1 = 0.5	0.103
473.15 K, 5000 kPa, x1 = 0.6	0.095
473.15 K, 5000 kPa, x1 = 0.7	0.0788
473.15 K, 5000 kPa, x1 = 0.8	0.0555
473.15 K, 5000 kPa, x1 = 0.9	0.0298
473.15 K, 8500 kPa, x1 = 0.2	0.0818
473.15 K, 8500 kPa, x1 = 0.4	0.119
473.15 K, 8500 kPa, x1 = 0.6	0.113
473.15 K, 8500 kPa, x1 = 0.8	0.0696
473.15 K, 10000 kPa, x1 = 0.2	0.0827
473.15 K, 10000 kPa, x1 = 0.4	0.124
473.15 K, 10000 kPa, x1 = 0.6	0.117
473.15 K, 10000 kPa, x1 = 0.8	0.0735
473.17 K, 5000 kPa, x1 = 0.9	0.0285
473.36 K, 5000 kPa, x1 = 0.1	0.0397
473.78 K, 8500 kPa, x1 = 0.8	0.0702
474.92 K, 5000 kPa, x1 = 0.1	0.0401
474.92 K, 5000 kPa, x1 = 0.2	0.0721
474.92 K, 5000 kPa, x1 = 0.3	0.0937
474.92 K, 5000 kPa, x1 = 0.4	0.103
474.92 K, 5000 kPa, x1 = 0.5	0.102
474.92 K, 5000 kPa, x1 = 0.6	0.0941
474.92 K, 5000 kPa, x1 = 0.7	0.0778
474.92 K, 5000 kPa, x1 = 0.8	0.0536
474.92 K, 5000 kPa, x1 = 0.9	0.0277
475.17 K, 10000 kPa, x1 = 0.2	0.0854
475.17 K, 10000 kPa, x1 = 0.4	0.126
475.17 K, 10000 kPa, x1 = 0.6	0.118
475.17 K, 10000 kPa, x1 = 0.8	0.0755
475.47 K, 8500 kPa, x1 = 0.2	0.083
475.47 K, 8500 kPa, x1 = 0.4	0.121
475.47 K, 8500 kPa, x1 = 0.6	0.115
475.47 K, 8500 kPa, x1 = 0.8	0.0705
493.71 K, 10000 kPa, x1 = 0.4	0.128
494.59 K, 10000 kPa, x1 = 0.2	0.0893
494.68 K, 10000 kPa, x1 = 0.6	0.118
495.72 K, 10000 kPa, x1 = 0.4	0.125
496.09 K, 10000 kPa, x1 = 0.2	0.0884
496.33 K, 10000 kPa, x1 = 0.8	0.0702
497.18 K, 10000 kPa, x1 = 0.6	0.116
498.15 K, 8500 kPa, x1 = 0.1	0.0443
498.15 K, 8500 kPa, x1 = 0.2	0.0795
498.15 K, 8500 kPa, x1 = 0.3	0.0979
498.15 K, 8500 kPa, x1 = 0.4	0.106
498.15 K, 8500 kPa, x1 = 0.5	0.103
498.15 K, 8500 kPa, x1 = 0.6	0.0938
498.15 K, 8500 kPa, x1 = 0.7	0.0758
498.15 K, 8500 kPa, x1 = 0.8	0.0522
498.15 K, 8500 kPa, x1 = 0.9	0.0256
498.15 K, 10000 kPa, x1 = 0.2	0.0875
498.15 K, 10000 kPa, x1 = 0.4	0.124
498.15 K, 10000 kPa, x1 = 0.6	0.114
498.15 K, 10000 kPa, x1 = 0.8	0.0689
498.93 K, 10000 kPa, x1 = 0.8	0.0687
500.09 K, 8500 kPa, x1 = 0.1	0.0446
500.09 K, 8500 kPa, x1 = 0.2	0.0768
500.09 K, 8500 kPa, x1 = 0.3	0.0941
500.09 K, 8500 kPa, x1 = 0.4	0.101
500.09 K, 8500 kPa, x1 = 0.5	0.0978
500.09 K, 8500 kPa, x1 = 0.6	0.0868
500.09 K, 8500 kPa, x1 = 0.7	0.0683
500.09 K, 8500 kPa, x1 = 0.8	0.0466
500.09 K, 8500 kPa, x1 = 0.9	0.0222
500.24 K, 10000 kPa, x1 = 0.2	0.087
500.24 K, 10000 kPa, x1 = 0.4	0.122
500.24 K, 10000 kPa, x1 = 0.6	0.112
500.24 K, 10000 kPa, x1 = 0.8	0.0679
504.64 K, 10000 kPa, x1 = 0.4	0.111

Reference: the NIST ThermoML archive (doi:10.1016/j.jct.2005.03.012)
